Consider 14 compounds from patent US12448388B2, “PRMT5 inhibitors and uses thereof” (Gilead Sciences, Inc., priority 2023, dated 2025).

The test system of data set [1] is LU99 (lung, giant cell carcinoma; MTAP-Deleted). The data set can be described thus: In vitro cell viability assay (CellTiter-Glo, 9 days), LU99. Type of data set: cell-based. Particulars: Homo sapiens, Lu-99, 216 h, 9-day treatment. As to the method: Some Compounds of the Disclosure were tested in Calu-6 (Vendor: ATCC; Cat #HTB-56; Description: lung, adenocarcinoma), LU99 (Vendor: JCRB; Cat #JCRB0080; Description: lung, giant cell carcinoma), SW780 (Vendor: ATCC; Cat #CRL-2169; Description: bladder, urothelial carcinoma), and BxPC-3 (Vendor: ATCC; Cat #CRL-1687; Description: pancreas, adenocarcinoma) cellular viability assays according to the general protocol. Seeded cells into 96-well plate and incubated overnight. Seeded an additional 10 wells per cell line in an additional 96-well plate for assessing Time Zero luminescence and incubated overnight. To treatment plates, added compounds into each well using Tecan D300e dispenser (nine three-fold dilutions starting at […]) and incubated for 9 days. Time Zero (no compound treatment, luminescence assessed on day 1) and 9-day treatment (luminescence assessed on day 10) plates were assessed using the same CellTiter-Glo® substrate protocol. Thawed CellTiter-Glo® Buffer and lyophilized CellTiter-Glo® substrate and equilibrated to room temperature prior to use. Transferred 100 ml CellTiter-Glo® Buffer into amber bottle containing CellTiter-Glo® substrate to reconstitute the lyophilized enzyme/substrate mixture. For Time Zero and 9-day treatment plates, removed all plating media. Added 100 μl fresh media/well. Added 100 μl CellTiter-Glo® Reagent per well. Mixed contents for 10 min on an orbital shaker to lyse cells. Recorded luminescence with Perkin Elmer Envision 2105 machine. Analyzed the data with GraphPad software.
A general note: In ATP-based viability assays light output follows the ATP content of the culture.

Another data set has as its target T1, hERG ion channel (Homo sapiens, UniProt Q12809).
T1 construct: host or cells: HEK293
The data set can be described thus: hERG assay (automated patch clamp, QPatch HT). Type of data set: cell-based. Particulars: HEK293 hERG, * = accurate hERG measurement may be limited by compound solubility. As to the method: Cell lines and cell culture: The HEK293 cell line stably expressing the hERG ion channel was provided from Charles River laboratories. Cells were maintained in tissue culture incubators per Charles River Laboratories SOP. Stocks were maintained in cryogenic storage. HEK293 cells were stably transfected with hERG cDNA.
Automated Patch Clamp Procedures: In preparation for a recording session, intracellular solution was loaded into the intracellular compartments of the QPlate and cell suspension was pipetted into the extracellular compartments. After establishment of a whole-cell configuration, membrane currents were recorded using up to 48 parallel patch clamp amplifiers in the QPatch HT® system. The current records were sampled at 2000 Hz and low-pass Bessel filtered at 400 Hz.
Valid whole-cell recordings met the following criteria: • 1. Membrane resistance ≥200 MΩ. • 2. Leak current 25% channel current or subtracted.
hERG Test Procedures: Onset and block of hERG current was measured using a stimulus voltage pattern consisting of a 500 ms prepulse to −40 mV (leakage subtraction), a 2-second activating pulse to +40 mV followed by a 2-second test pulse to −40 mV. The pulse pattern was repeated continuously at 10 s intervals from a holding potential of −80 mV. Peak tail current was measured during the −40 mV test pulse. Leakage current was calculated from the current amplitude evoked by the −40 mV prepulse and subtracted from the total membrane current record.
Data Analysis: Data acquisition and analysis were performed using the QPatch Assay Software (Sophion Bioscience A/S, Denmark). Steady state was defined by the limiting constant rate of change with time (linear time dependence). The steady state before and after test article application were used to calculate the percentage of current inhibited at each concentration. Run down, a time-dependent reduction of current amplitude, may be compensated for in the QPatch Assay Software using standard system tools. Concentration-response data was fit to an equation of the following form: […]
Where [Test] is the concentration of test compound, IC50 is the concentration of the test compound producing half-maximal inhibition, N is the Hill coefficient and % Block is the percentage of current inhibited at each concentration of the test article. Nonlinear least squares fits will be solved with the Solver add-in for Excel 2000 or later (Microsoft, Redmond, WA).

Data set [2] can be described thus: PK data (IV/PO) in Sprague-Dawley rat. Particulars: for half-life / clearance / Vd: iv; for clearance: read-out: Observed CL (converted); for Vd: read-out: Vss. The data set is classed as in vivo.
The subject of data set [3] is Symmetric Di-methyl Arginine (SDMA) signal (PRMT5 inhibition) in HCT116 MTAP-deleted cells. The data set can be described thus: Symmetric di-methyl arginine image-based high content screen assay (SDMA assay), HCT116 MTAP-deleted. The data set is classed as cell-based. Conditions: for EC50: Homo sapiens, HCT-116, HCT116 MTAP-deleted, class symbols. The gist of the method: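 HCT116 WT and MTAP-deleted cells (800/well, RPMI 1640 + 10% FBS) treated with compound 3 days at 37 °C; formalin-fixed, stained with anti-SDMA antibody/Alexa 488 plus DAPI. Mean SDMA intensity per DAPI-defined cell imaged; EC50 from 4-parameter logistic fit.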

Where [4] appears, read: Sprague-Dawley, rat, in vivo, 1 mg/kg, IV 1 mg/Kg.
The mark [5] stands for this setting: HCT116 WT versus HCT116 MTAP-deleted.
[6] abbreviates: Sprague-Dawley, rat, in vivo, 0.33 mg/kg, IV 0.33 mg/Kg.
Where [7] appears, read: Sprague-Dawley, rat, in vivo, 0.25 mg/kg, IV 0.25 mg/Kg.
The mark [8] stands for this setting: HCT116 WT vs HCT116 MTAP-deleted.

“And” between values parts separate entries of the source, which are not always exact repeats. Identical values can stand only once. Like-named read-outs stand apart in the source and are kept apart here.

T1 sequence (Q12809 whole entry): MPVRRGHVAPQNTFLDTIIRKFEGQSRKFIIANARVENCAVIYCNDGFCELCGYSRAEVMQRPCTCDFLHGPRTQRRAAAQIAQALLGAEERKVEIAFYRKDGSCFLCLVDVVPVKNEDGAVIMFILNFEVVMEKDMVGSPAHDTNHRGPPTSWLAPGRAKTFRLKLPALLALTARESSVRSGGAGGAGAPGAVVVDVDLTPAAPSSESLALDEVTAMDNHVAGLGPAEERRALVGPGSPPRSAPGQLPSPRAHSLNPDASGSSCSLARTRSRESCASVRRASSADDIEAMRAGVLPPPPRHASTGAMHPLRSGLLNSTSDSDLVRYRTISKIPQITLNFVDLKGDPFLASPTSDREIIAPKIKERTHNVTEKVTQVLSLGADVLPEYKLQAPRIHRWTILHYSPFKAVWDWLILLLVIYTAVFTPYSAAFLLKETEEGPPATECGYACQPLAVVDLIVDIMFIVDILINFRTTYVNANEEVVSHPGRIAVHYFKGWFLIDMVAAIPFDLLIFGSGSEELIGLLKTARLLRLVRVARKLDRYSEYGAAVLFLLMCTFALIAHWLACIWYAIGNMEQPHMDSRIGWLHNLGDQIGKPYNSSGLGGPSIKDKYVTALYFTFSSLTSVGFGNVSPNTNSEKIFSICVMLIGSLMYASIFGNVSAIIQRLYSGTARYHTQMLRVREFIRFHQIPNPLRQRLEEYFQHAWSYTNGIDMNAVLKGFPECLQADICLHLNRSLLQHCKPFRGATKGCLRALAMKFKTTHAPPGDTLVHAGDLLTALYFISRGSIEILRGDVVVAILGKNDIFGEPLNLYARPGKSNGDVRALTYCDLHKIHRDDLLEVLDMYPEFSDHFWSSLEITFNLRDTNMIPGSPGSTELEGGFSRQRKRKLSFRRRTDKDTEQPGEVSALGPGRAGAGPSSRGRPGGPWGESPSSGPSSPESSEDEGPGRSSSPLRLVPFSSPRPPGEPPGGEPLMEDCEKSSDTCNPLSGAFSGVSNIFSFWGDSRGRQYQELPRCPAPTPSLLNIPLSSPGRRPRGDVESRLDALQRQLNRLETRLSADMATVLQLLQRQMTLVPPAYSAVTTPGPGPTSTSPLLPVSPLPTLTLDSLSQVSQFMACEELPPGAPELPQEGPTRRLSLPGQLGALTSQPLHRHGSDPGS

`C[C@H]1CN(C(=O)c2cc3c(cc2F)nc(N)c2cncn23)[C@H]2c3ccc(C(F)(F)F)cc3C[C@H]2O1` (single isomer, unassigned) [Ff-81]: in data set [1], the GI50 (commonly the concentration at which growth is held to half of that of the control) was 0.019 µM. Besides, half-maximal inhibition against hERG ion channel (IC50) required 27.7 µM. Further, in data set [2] (setting [4]), the half-life (commonly how long it takes for the measured level to halve) is 4.7 h, the clearance is 4 mL/min/kg and the Vd came out at 1.65 L/kg.

As for `Nc1nc2cc(F)c(C(=O)N3CCO[C@@H]4Cc5cc(C(F)(F)F)ccc5[C@@H]43)cc2n2cncc12` (single isomer, unassigned) [Ff-82], the IC50 – broadly, the concentration that gives 50% inhibition – on hERG ion channel is more than 30 µM.

In data set [3] (setting [5]), `C[C@@H]1CN(C(=O)c2cc3c(cc2F)nc(N)c2cncn23)[C@H]2c3ccc(OC(F)(F)F)cc3C[C@H]2O1` (single isomer, unassigned) [Ff-183] showed an EC50 selectivity of 117. Moreover, the EC50 (in general, the midpoint of the concentration-response curve) in data set [3] was not above 0.001 µM. In data set [1], this compound registered a GI50 of 0.011 µM.

`C[C@@H]1CN(C(=O)c2cc3c(cc2F)nc(N)c2cncn23)[C@H]2c3cc(F)c(OC(F)(F)F)cc3C[C@H]2O1` (single isomer, unassigned) [Ff-197] gave an IC50 at hERG ion channel of 11.9 µM. That is a double-digit micromolar value.

On hERG ion channel, `Nc1nc2cnc(C(=O)N3CC[C@H]4C[C@@H]3c3c(F)cc(C(F)(F)F)cc3O4)cc2n2cncc12` (single isomer, unassigned) [Ff-694] displayed an IC50 of 16.2 µM. The IC50 values of the last two compounds are within 1.5-fold of each other.

`Nc1nc2cc(F)c(C(=O)N3CCC[C@@H]4Oc5cc(C(F)(F)F)ccc5[C@@H]43)cc2n2cncc12` [Ff-104, (4-amino-7-fluoroimidazo[1,5-a]quinoxalin-8-yl)((4aS,9bS)-7-(trifluoromethyl)-3,4,4a,9b-tetrahydrobenzofuro[3,2-b]pyridin-1(2H)-yl)methanone] displayed a GI50 in data set [1] of 0.004 µM. The compound further showed an IC50 on hERG ion channel of 14.2 µM. This compound also returned a T1/2 in data set [2] (IV 0.33 mg/Kg, 0.33 mg/kg) of 3.77 h. The “% F” value in data set [2] (PO 1.66 mg/Kg, 1.66 mg/kg) was 67% and 98%. In data set [2] (setting [6]), the half-life was 3.7 h.

As for `Nc1nc2cnc(C(=O)N3CCC[C@@H]4Oc5cc(C(F)(F)F)ccc5[C@@H]43)cc2n2cncc12` [Ff-110, (4-aminoimidazo[1,5-a]pyrido[3,4-e]pyrazin-8-yl)((4aS,9bS)-7-(trifluoromethyl)-3,4,4a,9b-tetrahydrobenzofuro[3,2-b]pyridin-1(2H)-yl)methanone], the EC50 selectivity in data set [3] (setting [5]) is 118. In data set [3], this compound yielded an EC50 not above 0.001 µM. Moreover, the GI50 in data set [1] was 0.007 µM. The compound further yielded an IC50 against hERG ion channel of 8.47 µM.

`Cc1ncc2c(N)nc3cnc(C(=O)N4CCC[C@@H]5Oc6cc(OC(F)(F)F)ccc6[C@@H]54)cc3n12` [Ff-340, (4-amino-1-methylimidazo[1,5-a]pyrido[3,4-e]pyrazin-8-yl)((4aS,9bS)-7-(trifluoromethoxy)-3,4,4a,9b-tetrahydrobenzofuro[3,2-b]pyridin-1(2H)-yl)methanone] displayed an EC50 selectivity in data set [3] (setting [5]) of 135. In data set [3], this compound showed an EC50 not above 0.001 µM. The compound also registered a GI50 in data set [1] of 0.017 µM. In data set [2] (setting [6]), the half-life is 5.3 h, the clearance is 8.83 mL/min/kg and the Vd came to 3.2 L/kg.

`Nc1nc2cnc(C(=O)N3CCC[C@@H]4Oc5cc(OC(F)(F)F)ccc5[C@@H]43)cc2n2cncc12` [Ff-341, (4-aminoimidazo[1,5-a]pyrido[3,4-e]pyrazin-8-yl)((4aS,9bS)-7-(trifluoromethoxy)-3,4,4a,9b-tetrahydrobenzofuro[3,2-b]pyridin-1(2H)-yl)methanone] yielded an EC50 selectivity in data set [3] (setting [5]) of 145. In addition, in data set [3], the EC50 is not above 0.001 µM. Moreover, halving of growth in data set [1] (GI50) required 0.013 µM. Moreover, in data set [2] (setting [7]), the half-life was 4.6 h, the clearance was 3.5 mL/min/kg and the Vd is 1.45 L/kg. Moreover, in data set [2] (Sprague-Dawley, rat, in vivo, po, 1.25 mg/kg, PO 1.25 mg/Kg), the bioavailability (commonly dose-corrected exposure relative to a reference, in per cent) was 99%.

On to `Cc1ncn2c1c(N)nc1cnc(C(=O)N3CCC[C@@H]4Oc5cc(C(F)(F)F)ccc5[C@@H]43)cc12` [Ff-499, (4-amino-3-methylimidazo[1,5-a]pyrido[3,4-e]pyrazin-8-yl)((4aS,9bS)-7-(trifluoromethyl)-3,4,4a,9b-tetrahydrobenzofuro[3,2-b]pyridin-1(2H)-yl)methanone], for which the IC50 at hERG ion channel came out at 17.5 µM. Besides, in data set [2] (setting [6]), the half-life was 3.1 h, the clearance is 8.17 mL/min/kg and the Vd turned out to be 1.72 L/kg.

`Nc1nc2cnc(C(=O)N3CC4(CC4)C[C@@H]4Oc5cc(C(F)(F)F)ccc5[C@@H]43)cc2n2cncc12` [Ff-648, (4-aminoimidazo[1,5-a]pyrido[3,4-e]pyrazin-8-yl)((4aS,9bS)-7-(trifluoromethyl)-4a,9b-dihydro-2H-spiro[benzofuro[3,2-b]pyridine-3,1′-cyclopropan]-1(4H)-yl)methanone] gave an EC50 selectivity in data set [3] (setting [8]) of 50. Further, in data set [3], the EC50 is not above 0.001 µM. The compound also returned a GI50 in data set [1] of 0.009 µM.

For the compound `Nc1nc2cnc(C(=O)N3CC[C@H]4C[C@@H]3c3ccc(C(F)(F)F)c(F)c3O4)cc2n2cncc12` [Ff-684, (4-aminoimidazo[1,5-a]pyrido[3,4-e]pyrazin-8-yl)((2S,6R)-10-fluoro-9-(trifluoromethyl)-3,4-dihydro-2H-2,6-methanobenzo[b][1,5]oxazocin-5(6H)-yl)methanone], the EC50 selectivity in data set [3] (setting [8]) is on record as 121. For the same compound, in data set [3], the EC50 is not above 0.001 µM.

With `Nc1nc2cnc(C(=O)N3CC[C@H]4C[C@@H]3c3ccc(OC(F)(F)F)cc3O4)cc2n2cncc12` [Ff-685, (4-aminoimidazo[1,5-a]pyrido[3,4-e]pyrazin-8-yl)((2S,6R)-9-(trifluoromethoxy)-3,4-dihydro-2H-2,6-methanobenzo[b][1,5]oxazocin-5(6H)-yl)methanone], the EC50 selectivity in data set [3] (setting [8]) turned out to be 108. This compound came in with an EC50 in data set [3] of 0.001 to 0.005 µM.

The compound `[2H]C1([2H])CC[C@@H]2Oc3cc(C(F)(F)F)ccc3[C@@H]2N1C(=O)c1cc2c(cn1)nc(N)c1cncn12` [Fg-60, (4-aminoimidazo[1,5-a]pyrido[3,4-e]pyrazin-8-yl)((4aS,9bS)-7-(trifluoromethyl)-3,4,4a,9b-tetrahydrobenzofuro[3,2-b]pyridin-1(2H)-yl-2,2-d2)methanone] gave an EC50 selectivity in data set [3] (setting [8]) of 87. The same compound showed an EC50 in data set [3] not above 0.001 µM.
